From patent publication US20260108546A1 (ELI LILLY AND COMPANY, priority 2024, published 2026) come the findings set out here.

The experiment has as its target T1, hGIP-R (Homo sapiens, UniProt P48546).
T1 construct: expressed in transfected cells; host or cells: HEK-293 clonal cell lines
T1 sequence (P48546 22-466): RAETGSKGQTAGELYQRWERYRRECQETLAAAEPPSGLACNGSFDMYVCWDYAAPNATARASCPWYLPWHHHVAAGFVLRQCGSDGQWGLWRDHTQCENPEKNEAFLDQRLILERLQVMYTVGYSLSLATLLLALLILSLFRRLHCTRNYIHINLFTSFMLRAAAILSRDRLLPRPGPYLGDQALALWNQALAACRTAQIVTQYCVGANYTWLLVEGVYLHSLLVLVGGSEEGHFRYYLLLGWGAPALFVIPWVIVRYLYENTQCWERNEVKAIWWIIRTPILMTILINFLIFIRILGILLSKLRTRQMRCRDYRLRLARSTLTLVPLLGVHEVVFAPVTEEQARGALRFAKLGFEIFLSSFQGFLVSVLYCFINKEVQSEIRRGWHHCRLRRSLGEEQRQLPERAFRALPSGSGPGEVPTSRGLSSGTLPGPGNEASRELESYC
In words: Functional hGIP-R Assay (cAMP formation, HTRF). The format is cell-based. The note with it: for Emax: cAMP efficacy, percent of maximal response to GIP(1-42)OH, 37° C., 0.1% bovine casein, arithmetic mean ± SEM; for EC50: cAMP potency, HEK-293 cells expressing hGIP-R, incubated at 37° C. in the presence of 0.1% bovine casein, geometric mean, read-out: Human GIP-R EC50, nM (SEM, n). In short, it runs like this:
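HEK-293 cells expressing hGIP-R were given a 20-point compound series in DMEM with 0.1% casein, 250 μM IBMX, 1% DMSO, 30 min at 37 °C. cAMP was read by HTRF against a standard curve, expressed as % of human GIP (1-42) OH maximum; EC50 and Emax came from four-parameter fits.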
A general note: Cyclic AMP is a second messenger, typically raised through Gs and lowered through Gi signalling.

Broadly, the Emax is the maximal effect, on the per cent scale that the assay sets. As a reminder, the EC50 is the concentration giving half of the maximal effect. For `Cn1cc2cc(-c3ccc([C@H]4C[C@@]45CCN([C@H](Cc4cnn(C(F)F)c4)C(=O)NC(C)(C)Cn4nc(C(F)(F)F)cc4-c4cc(F)c6nccn6c4)C5=O)cc3)cnc2n1` [Example 131, (R)-3-(1-(Difluoromethyl)-1H-pyrazol-4-yl)-N-(1-(5-(8-fluoroimidazo[1,2-a]pyridin-6-yl)-3-(trifluoromethyl)-1H-pyrazol-1-yl)-2-methylpropan-2-yl)-2-((1R,3R)-1-(4-(2-methyl-2H-pyrazolo[3,4-b]pyridin-5-yl)phenyl)-4-oxo-5-azaspiro[2.4]heptan-5-yl)propanamide], the maximum response (Emax) was 57.9 ± 4.24% and the EC50 is 17.7 nM.

Turning to `Cn1cc2cc(-c3ccc([C@H]4C[C@@]45CCN([C@H](Cc4cnn(C(F)F)c4)C(=O)NC(C)(C)Cn4nc(C(F)(F)F)cc4-c4ccc(C(N)=O)[nH]c4=O)C5=O)cc3)cnc2n1` [Example 132, 5-(1-(2-((R)-3-(1-(Difluoromethyl)-1H-pyrazol-4-yl)-2-((1R,3R)-1-(4-(2-methyl-2H-pyrazolo[3,4-b]pyridin-5-yl)phenyl)-4-oxo-5-azaspiro[2.4]heptan-5-yl)propanamido)-2-methylpropyl)-3-(trifluoromethyl)-1H-pyrazol-5-yl)-6-oxo-1,6-dihydropyridine-2-carboxamide], the Emax was 93.3 ± 0.0968% and the EC50 came out at 20.3 nM.

As for `Cn1cc2cc(-c3ccc([C@H]4C[C@@]45CCN([C@H](Cc4cnn(C(F)F)c4)C(=O)NC(C)(C)Cn4nc(C(F)(F)F)cc4-c4cn(C)c(=O)c6ccnn46)C5=O)cc3)cnc2n1` [Example 133, (R)-3-(1-(Difluoromethyl)-1H-pyrazol-4-yl)-N-(2-methyl-1-(5-(5-methyl-4-oxo-4,5-dihydropyrazolo[1,5-a]pyrazin-7-yl)-3-(trifluoromethyl)-1H-pyrazol-1-yl)propan-2-yl)-2-((1R,3R)-1-(4-(2-methyl-2H-pyrazolo[3,4-b]pyridin-5-yl)phenyl)-4-oxo-5-azaspiro[2.4]heptan-5-yl)propanamide], the Emax is 78.4 ± 3.18% and the EC50 was determined as 13.7 nM.

Turning to `Cn1cc2cc(-c3ccc([C@H]4C[C@@]45CCN([C@H](Cc4cnn(C(F)F)c4)C(=O)NC(C)(C)Cn4nc(C(F)(F)F)cc4-c4ccn(C(F)F)c(=O)c4)C5=O)c(F)c3)cnc2n1` [Example 134, (R)-3-(1-(Difluoromethyl)-1H-pyrazol-4-yl)-N-(1-(5-(1-(difluoromethyl)-2-oxo-1,2-dihydropyridin-4-yl)-3-(trifluoromethyl)-1H-pyrazol-1-yl)-2-methylpropan-2-yl)-2-((1S,3R)-1-(2-fluoro-4-(2-methyl-2H-pyrazolo[3,4-b]pyridin-5-yl)phenyl)-4-oxo-5-azaspiro[2.4]heptan-5-yl)propanamide], the Emax was found to be 57.4 ± 0.103% and the concentration giving a half-maximal response (EC50) was determined as 7.63 nM.

In the case of `CN(C)Cc1ccc(-c2cc(C(F)(F)F)nn2CC(C)(C)NC(=O)[C@@H](Cc2cnn(C(F)F)c2)N2CC[C@@]3(C[C@@H]3c3ccc(-c4cnc5nn(C)cc5c4)cc3F)C2=O)cn1` [Example 135, (R)-3-(1-(Difluoromethyl)-1H-pyrazol-4-yl)-N-(1-(5-(6-((dimethylamino)methyl)pyridin-3-yl)-3-(trifluoromethyl)-1H-pyrazol-1-yl)-2-methylpropan-2-yl)-2-((1S,3R)-1-(2-fluoro-4-(2-methyl-2H-pyrazolo[3,4-b]pyridin-5-yl)phenyl)-4-oxo-5-azaspiro[2.4]heptan-5-yl)propanamide], the Emax was determined as 48.5 ± 2.32% and the EC50 stood at 5.61 nM.

On to `[2H]C([2H])([2H])N(C(=O)[C@H]1C[C@@H]1c1ccc(-c2cnc3nn(C)cc3c2)nc1C(F)(F)F)[C@H](Cc1cnn(C(F)F)c1)C(=O)NC(C)(C)Cn1nc(C(F)(F)F)cc1-c1cc(F)c(=O)n(C)c1` [Example 136, (1S,2S)-N—((R)-3-(1-(Difluoromethyl)-1H-pyrazol-4-yl)-1-((1-(5-(5-fluoro-1-methyl-6-oxo-1,6-dihydropyridin-3-yl)-3-(trifluoromethyl)-1H-pyrazol-1-yl)-2-methylpropan-2-yl)amino)-1-oxopropan-2-yl)-N-(methyl-d3)-2-(6-(2-methyl-2H-pyrazolo[3,4-b]pyridin-5-yl)-2-(trifluoromethyl)pyridin-3-yl)cyclopropane-1-carboxamide], for which the Emax was found to be 74.6 ± 6.02% and the concentration giving a half-maximal response (EC50) was found to be 10.8 nM.

On to `[2H]C([2H])([2H])N(C(=O)[C@H]1C[C@@H]1c1ccc(-c2cnc3nn(C)cc3c2)nc1C(F)F)[C@H](Cc1cnn(C(F)F)c1)C(=O)NC(C)(C)Cn1nc(C(F)(F)F)cc1-c1cc(F)c(=O)n(C)c1` [Example 137, (1S,2S)-N-((R)-3-(1-(Difluoromethyl)-1H-pyrazol-4-yl)-1-((1-(5-(5-fluoro-1-methyl-6-oxo-1,6-dihydropyridin-3-yl)-3-(trifluoromethyl)-1H-pyrazol-1-yl)-2-methylpropan-2-yl)amino)-1-oxopropan-2-yl)-2-(2-(difluoromethyl)-6-(2-methyl-2H-pyrazolo[3,4-b]pyridin-5-yl)pyridin-3-yl)-N-(methyl-d3)cyclopropane-1-carboxamide], for which the maximal response (Emax) came out at 61.7 ± 1.34% and the EC50 was 12.3 nM.

Turning to `[2H]C([2H])([2H])N(C(=O)[C@H]1C[C@@H]1c1ccc(-c2cnc3nn(C)cc3c2)nc1C(F)F)[C@@H](Cc1cnn(C(F)F)c1)C(=O)NC(C)(C)Cn1nc(C(F)(F)F)cc1-c1cc(F)c(=O)n(C)c1` [Example 138, (1S,2S)-N-((S)-3-(1-(Difluoromethyl)-1H-pyrazol-4-yl)-1-((1-(5-(5-fluoro-1-methyl-6-oxo-1,6-dihydropyridin-3-yl)-3-(trifluoromethyl)-1H-pyrazol-1-yl)-2-methylpropan-2-yl)amino)-1-oxopropan-2-yl)-2-(2-(difluoromethyl)-6-(2-methyl-2H-pyrazolo[3,4-b]pyridin-5-yl)pyridin-3-yl)-N-(methyl-d3)cyclopropane-1-carboxamide], the Emax was 52.3% and the 50% effective concentration (EC50) was found to be 99.2 nM.

On to `[2H]C([2H])([2H])N(C(=O)[C@H]1C[C@@H]1c1cnc(-c2cnc3nn(C)cc3c2)nc1C(F)(F)F)[C@H](Cc1cnn(C(F)F)c1)C(=O)NC(C)(C)Cn1nc(C(F)(F)F)cc1-c1cc(F)c(=O)n(C)c1` [Example 139, (1S,2S)-N-((R)-3-(1-(Difluoromethyl)-1H-pyrazol-4-yl)-1-((1-(5-(5-fluoro-1-methyl-6-oxo-1,6-dihydropyridin-3-yl)-3-(trifluoromethyl)-1H-pyrazol-1-yl)-2-methylpropan-2-yl)amino)-1-oxopropan-2-yl)-N-(methyl-d3)-2-(2-(2-methyl-2H-pyrazolo[3,4-b]pyridin-5-yl)-4-(trifluoromethyl)pyrimidin-5-yl)cyclopropane-1-carboxamide], for which the maximal response (Emax) is 99.7 ± 3.49% and the EC50 was 24.8 nM.

Consider `[2H]C([2H])([2H])n1cc(-c2cc(C(F)(F)F)nn2CC(C)(C)NC(=O)[C@@H](Cc2cnn(C(F)F)c2)N2CC[C@@]3(C[C@@H]3c3ccc(-c4cnc5nn(C)cc5c4)cc3)C2=O)cc(F)c1=O` [Example 141, (R)-3-(1-(Difluoromethyl)-1H-pyrazol-4-yl)-N-(1-(5-(5-fluoro-1-(methyl-d3)-6-oxo-1,6-dihydropyridin-3-yl)-3-(trifluoromethyl)-1H-pyrazol-1-yl)-2-methylpropan-2-yl)-2-((1R,3R)-1-(4-(2-methyl-2H-pyrazolo[3,4-b]pyridin-5-yl)phenyl)-4-oxo-5-azaspiro[2.4]heptan-5-yl)propanamide], for which the Emax amounted to 60.9 ± 5.88% and the EC50 was 26.2 nM.

For `Cn1cc2cc(-c3ccc([C@H]4C[C@@]45CCN([C@H](Cc4cnn(C(F)F)c4)C(=O)NC(C)(C)Cn4nc(C(F)(F)F)cc4-c4cnc(N6CCC(=O)CC6)nc4)C5=O)cc3)cnc2n1` [Example 142, (R)-3-(1-(Difluoro-methyl)-1H-pyrazol-4-yl)-N-(2-methyl-1-(5-(2-(4-oxopiperidin-1-yl)pyrimidin-5-yl)-3-(trifluoromethyl)-1H-pyrazol-1-yl)propan-2-yl)-2-((1R,3R)-1-(4-(2-methyl-2H-pyrazolo[3,4-b]pyridin-5-yl)phenyl)-4-oxo-5-azaspiro[2.4]heptan-5-yl)propanamide], the Emax was determined as 49.9 ± 1.38% and the concentration for a half-maximal effect (EC50) was determined as 102 nM.

On to `Cn1cc2cc(-c3ccc([C@H]4C[C@@]45CCN([C@H](Cc4cnn(C(F)F)c4)C(=O)NC(C)(C)Cn4nc(C(F)(F)F)cc4-c4ccc(C#N)nc4)C5=O)cc3)cnc2n1` [Example 143, (R)-N-(1-(5-(6-Cyanopyridin-3-yl)-3-(trifluoro-methyl)-1H-pyrazol-1-yl)-2-methylpropan-2-yl)-3-(1-(difluoro-methyl)-1H-pyrazol-4-yl)-2-((1R,3R)-1-(4-(2-methyl-2H-pyrazolo[3,4-b]pyridin-5-yl)phenyl)-4-oxo-5-azaspiro[2.4]heptan-5-yl)propanamide], for which the Emax stood at 72.8 ± 3.32% and the EC50 stood at 57.7 nM.
